Where two headings read alike, the source gives them in different places. Peptide text beside a SMILES is read from it.
Tests used:
Assay type in all cases: cell-based
APJ receptor = target: T1, APJ receptor (Homo sapiens, UniProt P35414); test: Cellul'erk ERK phosphorylation assay in APJ-TREX cells; parameters: expressed in transfected cells; host or cells: Human TRex (APJ-TREX) cells, doxycycline-inducible expression; settings: relative to max pyr-apelin-13 activity at 100 nM; 3 or 0.3 μM compound, 5 minutes
T1 sequence (P35414 1-380): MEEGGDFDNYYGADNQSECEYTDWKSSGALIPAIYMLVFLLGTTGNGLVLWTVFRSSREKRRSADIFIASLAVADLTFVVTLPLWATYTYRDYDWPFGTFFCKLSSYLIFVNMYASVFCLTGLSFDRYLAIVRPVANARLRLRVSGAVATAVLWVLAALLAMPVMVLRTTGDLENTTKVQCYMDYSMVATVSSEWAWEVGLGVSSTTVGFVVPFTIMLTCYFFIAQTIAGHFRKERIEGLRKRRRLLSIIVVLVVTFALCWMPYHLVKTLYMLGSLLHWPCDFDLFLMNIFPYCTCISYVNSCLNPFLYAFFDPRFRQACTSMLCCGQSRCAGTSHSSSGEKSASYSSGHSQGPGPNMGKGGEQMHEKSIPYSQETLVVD
Description: Experiments were performed to test activation of the ERK and p38 pathways using the Cellul'erk and the Phospho-p38 MAPK (Thr180/Tyr182) assay kits (Cisbio). APJ-TREX cells were optimized for signaling (pre-serum starved overnight with low FBS serum (2% FBS media) with 1 ng/ml doxycyclin (for induction of APJ receptor expression), 50,000 cells, 5 minutes agonist activation for ERK activity). Cells were pretreated with 3 or 0.3 μM pepducin compound for 5 minutes and the reaction was stopped by lysis buffer. Lysates are then transferred to the assay plate for the detection of phosphorylated ERK or p38 by HTRF reagents.

CXCR4 receptor = CXCR4 receptor (Homo sapiens, UniProt P61073); test: Activity at CXCR4 receptor (selectivity, Gi-coupled GPCR); settings: FIGS. 6A-6C, selectivity vs. hAPJ
rat peritoneal cells = test: Ex vivo histamine release assay in rat peritoneal cells (vs. Compound 48/80)
How it was run: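 Resident peritoneal cells were lavaged from male Sprague Dawley rats and kept in HBSS/20 mM HEPES/0.2% BSA at 25,000 cells/well. They were exposed for 30 min at room temperature to compound at 3 points (100, 10, 1 μM DMSO stocks, 1% DMSO final). Released histamine was measured by HTRF and normalised to total histamine after Triton lysis. Compound 48/80 was the reference.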

[1] = target: T2, human APJ receptor (hAPJ) (Homo sapiens, UniProt P35414); test: HTRF cAMP assay: inhibition of NKH477-stimulated cAMP in HEK cells stably expressing hAPJ; settings: for Emax: HEK293, read-out: % IA, bound stated; for % IA (cAMP inhibition, hAPJ HEK): intrinsic activity; for Ranking: composite class of EC50 (hAPJ), % IA and % histamine or formal (+) charge; for inhibition of NKH477-stimulated increase in cAMP, dose dependent: concentration response curves, FIGS. 1 and 2, HEK cells stably expressing APJ
T2 construct: expressed in transfected cells
T2 sequence (P35414 1-380): T1 sequence (P35414 1-380)
How it was run: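 HEK cells stably expressing hAPJ, induced with 1 nG/mL doxycycline and seeded overnight at 40 k/well. cAMP read by HTRF competitive immunoassay using cryptate-labeled anti-cAMP antibody and d2-labeled cAMP.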

[2] = HTRF cAMP Assay, per data of Table 6
[3] = HTRF cAMP Assay, per data of Table 6, read-out: EC50 (hAPJ), inhibition of cAMP production, bound stated
[4] = Table 6, hAPJ HEK cells, NKH477-stimulated cAMP, read-out: EC50 (cAMP inhibition, hAPJ HEK)

Sequence of CXCR4 receptor (P61073 whole entry): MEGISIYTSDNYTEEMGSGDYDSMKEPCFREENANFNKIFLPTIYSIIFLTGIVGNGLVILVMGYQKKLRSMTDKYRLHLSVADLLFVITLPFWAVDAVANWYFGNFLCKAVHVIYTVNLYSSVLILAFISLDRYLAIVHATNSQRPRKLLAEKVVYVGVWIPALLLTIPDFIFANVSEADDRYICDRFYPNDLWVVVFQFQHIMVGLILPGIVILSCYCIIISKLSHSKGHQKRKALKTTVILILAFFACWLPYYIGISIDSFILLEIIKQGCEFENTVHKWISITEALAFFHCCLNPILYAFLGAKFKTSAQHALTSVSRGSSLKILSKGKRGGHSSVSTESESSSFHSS

Row | Structure (SMILES) | Average % Activity (ERK agonist activity) (APJ receptor) | activity at the CXCR4 receptor (CXCR4 receptor) | Histamine (% vs. 48/80) (rat peritoneal cells) | Emax [1, 2] | EC50 [1, 3] | EC50 [1, 4] | % IA (cAMP inhibition, hAPJ HEK) ([1]; Table 6, hAPJ HEK cells) | Ranking [1] | inhibition of NKH477-stimulated increase in cAMP, dose dependent [1]
1 | CCCCCCCCCCCCCCCC(=O)N[C@@H](CC(=O)O)C(=O)N[C@H](C(=O)N[C@@H](Cc1ccccc1)C(=O)N[C@@H](CCC(N)=O)C(=O)N[C@@H](CO)C(=O)N[C@@H](CO)C(=O)N[C@@H](CCC(=O)O)C(=O)N[C@H](CCCCN)C(=O)N[C@@H](CCCNC(=N)N)C(=O)N[C@@H](CCCNC(=N)N)C(=O)N[C@@H](CO)C(=O)N[C@@H](C)C(=O)N[C@@H](CC(=O)O)C(=O)N[C@@H](CCC(N)=O)C(=O)N[C@@H](Cc1ccccc1)C(=O)N[C@H](C(N)=O)[C@@H](C)CC)C(C)C [Compound 12] (HELM PEPTIDE1{[CCCCCCCCCCCCCCCC(=O)[*:2]].D.V.F.Q.S.S.E.[dK].R.R.S.A.D.Q.F.I.[am]}$$$$V2.0) | 51.8% | lack of dose-responsive activity | 9% | ≥ 80% | ≤ 25 nM | 12 nM | 97% | ***** (EC50≦25 nM (hAPJ), % IA≧80% and either % histamine≦35% or formal (+) charge≦1) | inhibited
2 | CCCCCCCCCCCCCCCC(=O)N[C@@H](CC(=O)O)C(=O)N[C@H](C(=O)N[C@@H](Cc1ccccc1)C(=O)N[C@@H](CCCNC(=N)N)C(=O)N[C@@H](CO)C(=O)N[C@@H](CO)C(=O)N[C@@H](CCC(=O)O)C(=O)N[C@H](CCCCN)C(=O)N[C@@H](CCCNC(=N)N)C(=O)N[C@@H](CCCNC(=N)N)C(=O)N[C@@H](CO)C(=O)N[C@@H](C)C(=O)N[C@@H](CC(=O)O)C(=O)N[C@@H](CCC(N)=O)C(=O)N[C@@H](Cc1ccccc1)C(=O)N[C@H](C(N)=O)[C@@H](C)CC)C(C)C [Compound 13] (HELM PEPTIDE1{[CCCCCCCCCCCCCCCC(=O)[*:2]].D.V.F.R.S.S.E.[dK].R.R.S.A.D.Q.F.I.[am]}$$$$V2.0) | 44.0% | lack of dose-responsive activity | 17% | ≥ 80% | ≤ 25 nM | 6 nM | 96% | ***** (EC50≦25 nM (hAPJ), % IA≧80% and either % histamine≦35% or formal (+) charge≦1) | inhibited

Reference: US20160159861A1, “APJ Receptor Compounds” (priority 2013, published 2016)
